Where “and” joins values, the source holds several entries; their conditions need not be identical. Equal values may be shown once.
Tested on: thromboxane A2 challenged PAH-minipig
Experiment: Haemodynamics in the anesthetized thromboxane challenged minipig, intratracheal dry powder (PAP, BP)
Format: in vivo, Göttingen Minipigs
Details: for BP (absolute values) / PAP (absolute values): lactose vehicle first, test powder 1.5 mg/4 kg i.t. @90 min, each animal (n=3); for % changes vs. baseline on PAP: each animal
Method: Healthy Göttingen Minipigs® Ellegaard (Ellegaard, Denmark) of both sexes and having a weight of 2-6 kg were used. The animals were sedated by i.m. administration of about 25 mg/kg ketamine and about 10 mg/kg azaperone. Anaesthesia was initiated by i.v. administration of about 2 mg/kg ketamine and about 0.3 mg/kg midazolam. Maintenance of anaesthesia was by i.v. administration of about 7.5-30 mg/kg/h ketamine and about 1-4 mg/kg/h midazolam (rate of infusion 1-4 ml/kg/h) and about 150 μg/kg/h pancuronium bromide (for example Pancuronium-Actavis). After intubation, the animals were ventilated by the ventilator at a constant respiratory volume (10-12 ml/kg, 35 breaths/min; Avea®, Viasys Healthcare, USA, or Engström Carestation, GE Healthcare, Freiburg, Germany) such that an end-tidal CO2 concentration of about 5% was achieved. Ventilation was performed with room air, enriched with about 40% oxygen (normoxia). For the measurement of the haemodynamic parameters such as pulmonary arterial pressure (PAP), blood pressure (BP) and heart rate (HR), catheters were inserted into the carotid artery to measure the blood pressure, and a Swan-Ganz® catheter was introduced in a flow-directed manner via the jugular vein into the pulmonary artery. The haemodynamic signals were recorded and evaluated by means of pressure transducers (Combitransducer, B. Braun, Melsungen, Germany)/amplifiers and Ponemah® as data acquisition software.
As reference pure Lactose vehicle was applied in the beginning of each experiment.

[1] = time 0 min, 375 μg/kg i.t., sesquihydrate
[2] = time 10 min, 375 μg/kg i.t., sesquihydrate
[3] = time 20 min, 375 μg/kg i.t., sesquihydrate
[4] = time 20 min, listed as ex. 6e, sesquihydrate
[5] = time 30 min, listed as ex. 6e, sesquihydrate
[6] = time 40 min, listed as ex. 6e, sesquihydrate
[7] = time 50 min, 375 μg/kg i.t., sesquihydrate
[8] = time 50 min, listed as ex. 6e, sesquihydrate
[9] = time 60 min, 375 μg/kg i.t., sesquihydrate
[10] = time 60 min, listed as ex. 6e, sesquihydrate
[11] = time 70 min, 375 μg/kg i.t., sesquihydrate
[12] = time 70 min, listed as ex. 6e, sesquihydrate
[13] = time 80 min, 375 μg/kg i.t., sesquihydrate
[14] = time 80 min, listed as ex. 6e, sesquihydrate
[15] = time 90 min, 375 μg/kg i.t., sesquihydrate
[16] = time 90 min, listed as ex. 6e, sesquihydrate
[17] = time 100 min, 375 μg/kg i.t., sesquihydrate
[18] = time 100 min, listed as ex. 6e, sesquihydrate
[19] = time 110 min, 375 μg/kg i.t., sesquihydrate
[20] = time 110 min, listed as ex. 6e, sesquihydrate
[21] = time 120 min, 375 μg/kg i.t., sesquihydrate
[22] = time 120 min, listed as ex. 6e, sesquihydrate
[23] = time 130 min, listed as ex. 6e, sesquihydrate
[24] = time 140 min, listed as ex. 6e, sesquihydrate

O.O.O.O=C(O)c1ccc(CCN(CCc2ccccc2OCc2ccc(-c3ccc(C(F)(F)F)cc3)cc2Cl)[C@H]2CCCc3nc(C(=O)O)ccc32)cc1.O=C(O)c1ccc(CCN(CCc2ccccc2OCc2ccc(-c3ccc(C(F)(F)F)cc3)cc2Cl)[C@H]2CCCc3nc(C(=O)O)ccc32)cc1 [example 6e, (5S)—{[2-(4-Carboxyphenyl)ethyl][2-(2-{[3-chloro-4′-(trifluoromethyl)biphenyl-4-yl]methoxy}phenyl)-ethyl]amino}-5,6,7,8-tetrahydroquinoline-2-carboxylic acid sesquihydrate]
systemic blood pressure (375 μg/kg i.t., within the last hour of the observation interval): slightly affected
maximal effect achievable in this animal model (i.t. dry powder): maximal effect
time to maximum effect after i.t. application (i.t. dry powder, 1.5 mg/4 kg animal weight): approximately 80 min
effect on PAP and BP (i.t. via PennCentury dry powder insufflator, 1.5 mg/4 kg animal weight): decrease of PAP without any effects on BP
efficacy with regard to PAP reduction as well as systemic BP reduction (micronized hydrates, 1.5 mg/4 kg (=375 μg/kg) i.t.): comparable efficacy
BP (mean) [1]: 99 mmHg and 104 mmHg and 117 mmHg
PAP(mean) [1]: 41.9 mmHg and 37.1 mmHg and 37.5 mmHg
BP (mean) (time 10 min, 375 μg/kg i.t.): 99 mmHg
BP (mean) [2]: 108 mmHg and 119 mmHg
PAP(mean) [2]: 42.0 mmHg and 37.3 mmHg and 38.6 mmHg
BP (mean) (time 20 min, 375 μg/kg i.t.): 99 mmHg
BP (mean) [3]: 109 mmHg and 118 mmHg
PAP(mean) [3]: 41.4 mmHg
BP (absolute values) (time 20 min): 99 mmHg
BP (absolute values) [4]: 107 mmHg and 119 mmHg
PAP (absolute values) [4]: 42.0 mmHg and 36.4 mmHg and 37.5 mmHg
BP (mean) (time 30 min, 375 μg/kg i.t.): 100 mmHg
BP (mean) (time 30 min, 375 μg/kg i.t., sesquihydrate): 107 mmHg and 118 mmHg
BP (absolute values) [5]: 99 mmHg and 104 mmHg and 117 mmHg
PAP (absolute values) [5]: 41.9 mmHg and 37.1 mmHg and 37.5 mmHg
BP (mean) (time 40 min, 375 μg/kg i.t.): 100 mmHg
BP (absolute values) (time 40 min): 99 mmHg
BP (absolute values) [6]: 108 mmHg and 119 mmHg
PAP (absolute values) [6]: 42.0 mmHg and 37.3 mmHg and 38.6 mmHg
BP, % changes vs. prevalues [7]: 101.4% and 98.5% and 100.3%
PAP, % changes vs. prevalues [7]: 98.3% and 96.2% and 101.2%
BP (absolute values) (time 50 min): 99 mmHg
BP (absolute values) [8]: 109 mmHg and 118 mmHg
PAP (absolute values) [8]: 41.4 mmHg and 37.4 mmHg and 39.8 mmHg
BP, % changes vs. prevalues [9]: 102.5% and 100.3% and 99.4%
PAP, % changes vs. prevalues [9]: 97.2% and 99.6% and 101.1%
BP (absolute values) (time 60 min): 100 mmHg
BP (absolute values) [10]: 107 mmHg and 118 mmHg
PAP (absolute values) [10]: 41.4 mmHg and 36.8 mmHg and 41.2 mmHg
BP, % changes vs. prevalues [11]: 99.4% and 96.0% and 98.6%
PAP, % changes vs. prevalues [11]: 97.8% and 97.5% and 98.5%
BP (absolute values) (time 70 min): 100 mmHg
BP (absolute values) [12]: 109 mmHg and 118 mmHg
PAP (absolute values) [12]: 41.0 mmHg and 37.4 mmHg and 41.3 mmHg
% changes vs. baseline on PAP (time 80 min (baseline = 100.0), i.t. dry powder): 100.0%
BP, % changes vs. prevalues [13]: 101.4% and 96.8% and 97.7%
PAP, % changes vs. prevalues [13]: 87.8% and 94.9% and 87.9%
BP (absolute values) [14]: 101 mmHg and 114 mmHg and 119 mmHg
PAP (absolute values) [14]: 40.9 mmHg and 38.1 mmHg and 40.8 mmHg
BP, % changes vs. prevalues [15]: 101.4% and 98.5% and 96.9%
PAP, % changes vs. prevalues [15]: 82.5% and 92.0% and 76.6%
% changes vs. baseline on PAP (time 90 min, baseline 100.0 at 80 min, i.t. dry powder, sesquihydrate): 98.9% and 103.6% and 99.8%
BP (absolute values) (time 90 min): 102 mmHg
BP (absolute values) [16]: 116 mmHg and 118 mmHg
PAP (absolute values) [16]: 40.4 mmHg and 39.5 mmHg and 40.7 mmHg
BP, % changes vs. prevalues [17]: 101.4% and 98.5% and 96.9%
PAP, % changes vs. prevalues [17]: 77.6% and 90.1% and 71.1%
% changes vs. baseline on PAP (time 100 min, baseline 100.0 at 80 min, i.t. dry powder, sesquihydrate): 99.5% and 101.4% and 97.3%
BP (absolute values) (time 100 min): 99 mmHg
BP (absolute values) [18]: 111 mmHg and 117 mmHg
PAP (absolute values) [18]: 40.7 mmHg and 38.7 mmHg and 39.6 mmHg
BP, % changes vs. prevalues [19]: 99.4% and 103.7% and 96.1%
PAP, % changes vs. prevalues [19]: 74.0% and 88.3% and 68.4%
% changes vs. baseline on PAP (time 110 min, baseline 100.0 at 80 min, i.t. dry powder, sesquihydrate): 89.3% and 98.7% and 86.8%
BP (absolute values) [20]: 101 mmHg and 112 mmHg and 116 mmHg
PAP (absolute values) [20]: 36.5 mmHg and 37.6 mmHg and 35.4 mmHg
BP, % changes vs. prevalues [21]: 99.4%
PAP, % changes vs. prevalues [21]: 72.8% and 73.1% and 66.2%
% changes vs. baseline on PAP (time 120 min, baseline 100.0 at 80 min, i.t. dry powder, sesquihydrate): 84.0% and 95.6% and 75.7%
BP (absolute values) [22]: 101 mmHg and 114 mmHg and 115 mmHg
PAP (absolute values) [22]: 34.3 mmHg and 36.4 mmHg and 30.8 mmHg
PAP, % changes vs. prevalues (time 130 min, 375 μg/kg i.t., sesquihydrate): 69.8%
% changes vs. baseline on PAP (time 130 min, baseline 100.0 at 80 min, i.t. dry powder, sesquihydrate): 78.9% and 93.7% and 70.2%
BP (absolute values) [23]: 101 mmHg and 114 mmHg and 115 mmHg
PAP (absolute values) [23]: 32.3 mmHg and 35.7 mmHg and 28.6 mmHg
% changes vs. baseline on PAP (time 140 min, baseline 100.0 at 80 min, i.t. dry powder, sesquihydrate): 75.2% and 91.8% and 67.5%
BP (absolute values) [24]: 99 mmHg and 120 mmHg and 114 mmHg
PAP (absolute values) [24]: 30.8 mmHg and 35.0 mmHg and 27.5 mmHg
% changes vs. baseline on PAP (time 150 min, baseline 100.0 at 80 min, i.t. dry powder, sesquihydrate): 74.0% and 76.0% and 65.4%

Source: patent US12202805B2, “Process for preparing (5S)-{[2-(4-carboxyphenyl)ethyl] |2-(2-{|3-chloro-4'-(trifluoromethyl)biphenyl-4-yl]methoxy}phenyl)ethyl]aminol-5,6,7,8-tetrahydroquinoline-2-carboxylic acid and its crystalline forms for use as pharmaceutically active compound” (Bayer Aktiengesellschaft, priority 2021, dated 2025)
